These results are taken from US7763624B2, “Substituted pyrazolo[3,4-d]pyrimidines as ACK-1 and LCK inhibitors” (Amgen Inc., priority 2005, dated 2010).

One test deals with C8 cells. Nature of the test: ACK1 Cell Based Assay (survival under low serum, Cytotox One). The note with it: read-out: ACK1 Cell-based IC50. The protocol:
ACK1 Cell Based Assay The ACK1 cell based assay is designed to find inhibitors of ACK1 kinase activity which would be prime candidates for the development of anticancer drugs. […] After 20 to 24 h incubation at 37° C. and 5% CO2, cell viability is determined using the Cytotox One kit (Promega) according to the manufacturer's instructions.

The target of another test is T1, ACK1 (Homo sapiens, UniProt Q07912).
T1 construct: a fusion of an N-terminal (His)6 Tag with amino acids 117 to 489 of ACK1; (His)6 (N); made in house; host or cells: baculovirus infected Hi-5 insect cells
T1 sequence (Q07912 117-489): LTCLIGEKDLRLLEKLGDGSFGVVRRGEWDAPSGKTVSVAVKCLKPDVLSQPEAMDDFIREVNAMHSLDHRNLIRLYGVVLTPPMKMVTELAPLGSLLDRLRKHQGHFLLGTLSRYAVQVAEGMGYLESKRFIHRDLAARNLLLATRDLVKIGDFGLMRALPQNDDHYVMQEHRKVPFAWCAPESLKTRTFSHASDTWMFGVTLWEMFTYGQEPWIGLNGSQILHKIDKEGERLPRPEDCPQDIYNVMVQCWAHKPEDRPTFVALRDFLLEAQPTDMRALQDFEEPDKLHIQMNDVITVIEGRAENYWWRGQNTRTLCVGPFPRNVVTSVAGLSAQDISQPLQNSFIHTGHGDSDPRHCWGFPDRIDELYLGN
Nature of the test: ACK1 Enzymatic Assay (PGT/autophosphorylation ELISA). The test is classed as biochemical. The procedure:
IC50 values of compounds of the invention may be assessed as follows. The ACK1 kinase assay utilizes a protein expressed in baculovirus infected Hi-5 cells (a fusion of an N-terminal (His)6 Tag with amino acids 117 to 489 of ACK1) purified by affinity chromatography on a Ni-NTA column. The substrate for the reaction is ACK1 itself (autophosphorylation) and poly-Glutamic acid-Tyrosine (PGT (4:1), Sigma catalog #PO275). The PGT is coated to Nunc 96 well plates at 80 μg/mL overnight at 4° C. The morning after coating, the plates are washed twice, and […] reaction buffer (10 mM Hepes, pH 7.6; 20 mM MgCl2; 75 mM NaCl, 0.125% TWEEN20 (polyoxyethylene sorbitan monolaurate); 1 mM DTT) with 5 μM ATP are added to each well. Test compounds are added in […] DMSO, and the reaction is started by addition of […] kinase in assay buffer. The reaction proceeds for 2 h at room temperature. Next, the plates are washed four times, and the level of tyrosine phosphorylation in a given well is quantified by standard ELISA assay utilizing a phosphotyrosine antibody (PY20, Pierce).
For orientation: An ELISA detects its analyte on a solid surface through an enzyme-linked reagent.

For another test, the target named is T2, LCK (Homo sapiens, UniProt P06239).
T2 construct: 15 μL of LCK KD GST (225-509) for a final volume of 40 μL; GST
T2 sequence (P06239 225-509): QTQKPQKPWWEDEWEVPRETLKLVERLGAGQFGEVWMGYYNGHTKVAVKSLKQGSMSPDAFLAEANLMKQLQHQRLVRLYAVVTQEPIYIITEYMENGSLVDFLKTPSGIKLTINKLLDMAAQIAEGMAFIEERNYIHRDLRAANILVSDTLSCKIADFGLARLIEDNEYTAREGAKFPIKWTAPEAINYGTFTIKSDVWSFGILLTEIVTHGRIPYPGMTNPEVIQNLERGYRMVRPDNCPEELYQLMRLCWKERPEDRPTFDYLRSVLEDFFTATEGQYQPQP
The test can be described thus: LCK-Homogeneous Time Resolved Fluorescent (HTRF) Kinase Assay. The test is classed as biochemical. The protocol: LCK-Homogeneous Time Resolved Fluorescent (HTRF) Kinase Assay
The LCK HTRF assay begins with LCK in the presence of ATP phosphorylating the biotinylated peptide Gastrin. The reaction incubates for 90 min. To quench the assay detection reagents are added which both stop the reaction by diluting out the enzyme and chelating the metals due to the presence of EDTA. Once the detection reagents are added the assay incubates for 30 min to allow for equilibration of the detection reagents.
Buffer conditions are as follows: 50 mM HEPES pH 7.5, 50 mM NaCl, 20 mM MgCl2, 5 mM MnCl2, 2 mM DTT, 0.05% BSA.
The assay is quenched and stopped with 160 μL of a detection reagent. Detection reagents are as follows: Buffer made of 50 mM Tris, pH 7.5, 100 mM NaCl, 3 mM EDTA, 0.05% BSA, 0.1% Tween20.
The assay plate is read in either a Discovery or a RubyStar.
A general note: In TR-FRET formats the signal depends on donor and acceptor labels being close together.

Where [1] appears, read: ACK1-dependent C8 cells, 0.125% FCS, 20 to 24 h.

Like-named read-outs stand apart in the source and are kept apart here.

For `COC(C)(C)CCn1nc(Nc2c(Cl)cccc2Cl)c2ccc(Nc3ccc(N4CCN(C(=O)OCC5c6ccccc6-c6ccccc65)CC4)cc3)cc21` [Compound 81, (9H-Fluoren-9-yl)methyl 4-(4-(3-(2,6-dichlorophenylamino)-1-(3-methoxy-3-methyl-butyl)-1H-indazol-6-ylamino)phenyl)piperazine-1-carboxylate], the IC50 (in general, the concentration that gives 50% inhibition) with C8 cells is > 100 nM. Also, the Ki (in general, a dissociation constant, usually derived from enzyme kinetics or from competition with a known ligand) at ACK1 is 10 to 100 nM; at LCK, < 10 nM.

Regarding “N^3-(2,6-Dimethylphenyl)-1-(3-methoxy-3-methylbutyl)-1H-indazole-3,6-diamine [Compound 58]”, the IC50 in the test on C8 cells (setting [1]) was > 100 nM. Further, the values for the inhibition constant Ki on ACK1 and on LCK were > 100 nM and < 10 nM, respectively.

As to “2-(3-(2,6-dimethylphenylamino)-6-(phenylamino)-1H-indazol-1-yl)acetic acid [Compound 69]”, the concentration for half-maximal inhibition (IC50) with C8 cells (setting [1]) is > 100 nM. The Ki was 10 to 100 nM at ACK1 and < 10 nM at LCK.

For the molecule `COC(C)(C)CCn1nc(Nc2c(Cl)cccc2Cl)c2ccc(Nc3ccc(N4CCNCC4)cc3)cc21` [Compound 84], the IC50 in the test on C8 cells (setting [1]) lay within 10 to 100 nM. Moreover, the inhibition constant Ki was 10 to 100 nM at ACK1 and < 10 nM on LCK.

For the molecule `Cc1cccc(C)c1Nc1nn(CCN2CCOCC2)c2nc(Nc3ccc(N4CCN(C)CC4)cc3)ncc12` [Compound 53, N^3-(2,6-dimethyl-phenyl)-N^6-[4-(4-methyl-piperazin-1-yl)-phenyl]-1-(2-morpholin-4-yl-ethyl)-1H-pyrazolo[3,4-d]pyrimidine-3,6-diamine], in the test on C8 cells (setting [1]), the IC50 was > 100 nM. In addition, the Ki was 10 to 100 nM on ACK1 and < 10 nM on LCK.

As for `COC(C)(C)CCn1nc(Nc2c(C)cc(F)cc2C)c2cnc(Nc3ccc(N4CCN(C)CC4)cc3)nc21` [Compound 79, N^3-(4-Fluoro-2,6-dimethyl-phenyl)-1-(3-methoxy-3-methyl-butyl)-N^6-[4-(4-methyl-piperazin-1-yl)-phenyl]-1H-pyrazolo[3,4-d]pyrimidine-3,6-diamine], the half-inhibitory concentration (IC50) in the test on C8 cells (setting [1]) was in the range of 10 to 100 nM. Moreover, the Ki at ACK1 was 10 to 100 nM; at LCK it was < 10 nM.

On to `Cc1cccc(C)c1Nc1nn(CCN2CCOCC2)c2nc(Nc3ccccc3)ncc12` [Compound 51, N^3-(2,6-Dimethyl-phenyl)-1-(2-morpholin-4-yl-ethyl)-N^6-phenyl-1H-pyrazolo[3,4-d]pyrimidine-3,6-diamine], for which the IC50 in the test on C8 cells is > 100 nM. Further, the inhibitory constant (Ki) at ACK1 was 10 to 100 nM; on LCK, < 10 nM.
